Experiments:
Experiment in all cases: relative viability (nuclei count vs DMSO), 5 days (fraction); higher = more cells survive
Tosedostat + Vorinostat = compound: CC(C)C[C@@H](C(=O)N[C@H](C(=O)OC1CCCC1)c1ccccc1)[C@H](O)C(=O)NO [Tosedostat] + O=C(CCCCCCC(=O)Nc1ccccc1)NO [Vorinostat] (partner 1 µM)
Method in brief: (§1)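 The day after seeding in 1536-well plates, lung cancer cell lines were treated by pin tool with a single drug, or with a fixed anchor-drug dose together with five library-drug doses (not always all listed) in √10 steps. After 5 days, a combined fix-and-stain solution (final 0.05% Triton X-100, 1% formaldehyde, 1 ug/ml Hoechst) was added. Nuclei counted on 4× images gave relative viability as treated counts over vehicle counts, reported as the median of duplicate plates.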

[1] = compound: CC1=NN=C(O1)C2=NN=C(C=C2)N3CCC(CC3)OC4=C(C=CC(=C4)F)Cl + Cc1nc(Nc2ncc(C(=O)Nc3c(C)cccc3Cl)s2)cc(N2CCN(CCO)CC2)n1 [Dasatinib] (partner 0.075 µM)
Method in brief: as §1

[2] = compound: CC1=NN=C(O1)C2=NN=C(C=C2)N3CCC(CC3)OC4=C(C=CC(=C4)F)Cl + Nc1ncn([C@H]2C[C@H](O)[C@@H](CO)O2)c(=O)n1 [Decitabine] (partner 2 µM)
Method in brief: as §1

[3] = compound: CC1=NN=C(O1)C2=NN=C(C=C2)N3CCC(CC3)OC4=C(C=CC(=C4)F)Cl + O=C(CCCCCCC(=O)Nc1ccccc1)NO [Vorinostat] (partner 1 µM)
Method in brief: as §1

Row | Cell Line | relative viability (Tosedostat + Vorinostat; first compound 0.02 µM) | relative viability (Tosedostat + Vorinostat; first compound 0.06325 µM) | relative viability (Tosedostat + Vorinostat; first compound 0.2 µM) | relative viability (Tosedostat + Vorinostat; first compound 0.6325 µM) | relative viability (Tosedostat + Vorinostat; first compound 2 µM) | relative viability ([1]; first compound 0.253 µM) | relative viability ([1]; first compound 0.8 µM) | relative viability ([1]; first compound 2.53 µM) | relative viability ([1]; first compound 8 µM) | relative viability ([2]; first compound 0.253 µM) | relative viability ([2]; first compound 0.8 µM) | relative viability ([2]; first compound 2.53 µM) | relative viability ([2]; first compound 8 µM) | relative viability ([3]; first compound 0.253 µM) | relative viability ([3]; first compound 0.8 µM) | relative viability ([3]; first compound 2.53 µM) | relative viability ([3]; first compound 8 µM)
1 | NCI-H2342 | 0.851 | 0.79 | 0.75 | 0.702 | 0.843 | 0.286 | 0.293 | 0.325 | 0.274 | 0.579 | 0.552 | 0.528 | 0.5 | 0.551 | 0.551 | 0.583 | 0.436
2 | SK-MES-1 | 1.13 | 1.03 | 0.963 | 1.1 | 1 | 0.359 | 0.384 | 0.419 | 0.42 | 0.369 | 0.388 | 0.356 | 0.326 | 0.781 | 0.765 | 0.766 | 0.702
3 | NCI-H1355 | 0.654 | 0.631 | 0.705 | 0.543 | 0.604 | 0.314 | 0.526 | 0.781 | 0.585 | 0.311 | 0.333 | 0.334 | 0.339 | 0.405 | 0.478 | 0.625 | 0.558
4 | HCC-366 | 0.426 | 0.305 | 0.394 | 0.386 | 0.352 | 0.292 | 0.375 | 0.471 | 0.361 | 0.242 | 0.207 | 0.292 | 0.252 | 0.0995 | 0.112 | 0.127 | 0.0801
5 | 201T | 1.01 | 0.997 | 0.99 | 0.962 | 0.981 | 0.38 | 0.45 | 0.409 | 0.433 | 0.459 | 0.647 | 0.445 | 0.43 | 0.474 | 0.501 | 0.478 | 0.479
6 | HCC-827 | 0.545 | 0.94 | 0.861 | 0.73 | 0.718 | 0.374 | 0.235 | 0.357 | 0.256 | 0.342 | 0.298 | 0.183 | 0.282 | 0.382 | 0.207 | 0.322 | 0.377
7 | PC-14 | 0.819 | 0.653 | 0.712 | 0.58 | 0.458 | 0.264 | 0.242 | 0.283 | 0.231 | 0.19 | 0.226 | 0.177 | 0.23 | 0.695 | 0.543 | 0.714 | 0.567
8 | NCI-H2228 | 0.615 | 0.348 | 0.548 | 0.25 | 0.236 | 0.555 | 0.412 | 0.537 | 0.405 | – | – | – | – | 0.454 | 0.586 | 0.391 | 0.542
9 | NCI-H727 | 1.18 | 1.26 | 1.1 | 0.886 | 0.683 | 0.328 | – | 0.441 | 0.384 | 0.916 | 0.873 | 0.905 | 0.862 | 1.16 | 1.02 | 1.38 | 1.22
10 | NCI-H1650 | 0.51 | 0.641 | 0.735 | 0.841 | 0.704 | – | 0.342 | 0.335 | 0.28 | 0.338 | 0.402 | 0.387 | 0.392 | 0.323 | 0.289 | 0.37 | 0.333
11 | A-427 | 0.893 | 0.893 | 0.85 | 0.853 | 0.801 | 0.654 | – | 0.669 | 0.63 | 0.55 | 0.576 | 0.53 | 0.569 | 0.796 | 0.689 | 0.791 | 0.703
12 | NCI-H650 | 0.752 | 0.528 | 0.416 | 0.334 | 0.308 | 0.496 | 0.436 | 0.419 | 0.445 | 0.334 | 0.331 | 0.336 | 0.285 | 0.451 | 0.248 | 0.294 | 0.329
13 | NCI-H1792 | – | – | – | – | – | 0.578 | 0.714 | 0.78 | 0.707 | 0.396 | 0.507 | 0.558 | 0.442 | – | – | – | –
14 | NCI-H2009 | 0.808 | 0.659 | 0.736 | 0.633 | 0.645 | 0.309 | 0.289 | 0.307 | 0.327 | 0.322 | 0.304 | 0.311 | 0.268 | 0.428 | 0.343 | 0.422 | 0.36
15 | NCI-H1975 | 0.741 | 0.742 | 0.678 | 0.611 | 0.622 | – | 0.361 | 0.581 | 0.546 | 0.258 | 0.28 | 0.358 | 0.278 | 0.606 | 0.643 | 0.629 | 0.619
16 | LOU-NH91 | 0.983 | 0.932 | 0.898 | 0.764 | 0.693 | 0.473 | 0.517 | 0.512 | 0.509 | – | 0.773 | 0.773 | 0.759 | – | 0.853 | 0.807 | 0.922
17 | EMC-BAC-2 | 0.605 | 0.713 | 0.471 | 0.408 | 0.323 | 0.319 | 0.324 | 0.362 | 0.422 | 0.903 | 0.837 | 0.957 | 0.794 | 0.512 | 0.426 | 0.446 | 0.239
18 | LK-2 | 0.34 | 0.364 | 0.24 | 0.266 | 0.251 | 0.393 | 0.458 | 0.504 | 0.428 | 0.401 | 0.279 | 0.325 | 0.315 | 0.352 | 0.256 | 0.291 | 0.295

Row | Cell Line | relative viability (Tosedostat + Vorinostat; first compound 0.02 µM) | relative viability (Tosedostat + Vorinostat; first compound 0.06325 µM) | relative viability (Tosedostat + Vorinostat; first compound 0.2 µM) | relative viability (Tosedostat + Vorinostat; first compound 0.6325 µM) | relative viability (Tosedostat + Vorinostat; first compound 2 µM) | relative viability ([1]; first compound 0.253 µM) | relative viability ([1]; first compound 0.8 µM) | relative viability ([1]; first compound 2.53 µM) | relative viability ([1]; first compound 8 µM) | relative viability ([2]; first compound 0.253 µM) | relative viability ([2]; first compound 0.8 µM) | relative viability ([2]; first compound 2.53 µM) | relative viability ([2]; first compound 8 µM) | relative viability ([3]; first compound 0.253 µM) | relative viability ([3]; first compound 0.8 µM) | relative viability ([3]; first compound 2.53 µM) | relative viability ([3]; first compound 8 µM)
19 | NCI-H2405 | 1.06 | 1.12 | 0.955 | 0.841 | 0.798 | 0.199 | 0.207 | 0.179 | 0.181 | 0.452 | 0.43 | 0.485 | 0.443 | 0.583 | 0.556 | 0.535 | 0.455
20 | NCI-H520 | 0.737 | 0.77 | 0.59 | 0.839 | 0.761 | 0.258 | – | 0.211 | 0.222 | 0.603 | 0.495 | 0.478 | 0.362 | 0.561 | 0.712 | 0.569 | 0.613
21 | NCI-H2085 | – | 0.831 | 0.748 | 0.897 | 0.74 | 0.303 | 0.234 | 0.255 | 0.227 | 0.479 | 0.477 | 0.446 | 0.406 | 0.649 | 0.557 | 0.687 | 0.58
22 | NCI-H1944 | 0.632 | 0.505 | 0.653 | 0.523 | 0.556 | 0.212 | 0.23 | 0.224 | 0.264 | 0.306 | 0.288 | 0.321 | 0.309 | 0.349 | 0.329 | 0.427 | 0.393
23 | LXF-289 | 0.818 | 0.716 | 0.822 | 0.703 | 0.771 | 0.209 | 0.234 | 0.195 | 0.227 | 0.317 | 0.323 | 0.343 | 0.3 | 0.637 | 0.418 | 0.586 | 0.463
24 | NCI-H596 | 0.731 | 0.706 | 0.816 | 0.692 | 0.616 | 0.558 | 0.602 | 0.647 | 0.506 | 1.01 | 0.977 | 1.08 | 0.762 | 0.474 | 0.564 | 0.6 | 0.567
25 | NCI-H441 | 0.809 | 0.654 | 0.759 | 0.55 | 0.547 | 0.566 | 0.492 | 0.664 | 0.493 | 0.221 | 0.227 | 0.259 | 0.254 | 0.424 | 0.384 | 0.302 | 0.382
26 | NCI-H2126 | 0.635 | 0.822 | 0.81 | 0.701 | 0.79 | 0.526 | 0.635 | 0.616 | 0.611 | 0.542 | 0.549 | 0.488 | 0.52 | 0.754 | 0.651 | 0.642 | 0.631
27 | HCC-15 | 0.941 | 0.849 | 0.826 | 0.757 | 0.745 | 0.497 | 0.453 | 0.499 | 0.472 | 0.497 | 0.5 | 0.493 | 0.457 | 0.534 | 0.431 | 0.511 | 0.554
28 | HCC-44 | 1.26 | 1.07 | 1.09 | 1.04 | 1.07 | – | – | – | – | 0.44 | 0.413 | 0.436 | 0.425 | 0.584 | 0.708 | 0.698 | 0.423
29 | COR-L23 | 0.57 | 0.454 | 0.38 | 0.343 | 0.399 | 0.438 | 0.375 | 0.39 | 0.343 | 0.383 | 0.409 | 0.396 | 0.409 | 0.332 | 0.378 | 0.375 | 0.316
30 | NCI-H1563 | – | – | – | – | – | 0.465 | 0.48 | 0.55 | 0.452 | – | – | – | – | – | – | – | –
31 | NCI-H1648 | 0.316 | 0.661 | 0.553 | 0.365 | 0.354 | – | – | – | – | 0.378 | 0.465 | 0.433 | 0.473 | 0.376 | 0.417 | 0.5 | 0.513
32 | A549 | – | – | – | – | – | – | – | – | – | 0.223 | 0.218 | 0.222 | 0.208 | – | – | – | –
33 | NCI-H1623 | – | – | – | – | – | 0.522 | 0.492 | 0.498 | 0.441 | – | – | – | – | – | – | – | –
34 | IA-LM | 1.09 | 0.844 | 0.791 | 0.899 | 0.878 | – | – | – | – | – | – | – | – | 0.402 | 0.296 | 0.435 | 0.364
35 | CAL-12T | 1.05 | 0.678 | 0.656 | 0.572 | 0.685 | 0.315 | 0.34 | 0.374 | 0.228 | – | – | – | – | 0.524 | 0.542 | 0.566 | 0.368
